Values of other authors in patent US10585101B2, “Prostatic liquid biopsy for the detection of prostate cancer and benign prostatic hyperplasia” (WAVESENSE, INC., priority 2016, dated 2020).

Test system: prostate cancer
Conditions: long term use

CC(C)(C)NC(=O)[C@H]1CC[C@H]2[C@@H]3CC[C@H]4NC(=O)C=C[C@]4(C)[C@H]3CC[C@]12C [finasteride, Finasteride]
risk of low-grade prostate cancer: decreased the risk of low-grade prostate cancer
